One compound from patent publication US20160367622A1, “AGONISTS OF GUANYLATE CYCLASE USEFUL FOR THE TREATMENT OF OPIOID INDUCED DYSFUNCTIONS” (priority 2013, published 2016) can be followed below.

The structures appear in SMILES notation. “Also recorded” adds a separate entry of the source. Where two headings read alike, the source gives them in different places. Positions of bridges follow the written chain, without caps; N, C: chain ends. Non-standard residues stand in square brackets, D forms with d. Residues, ends and D or L forms follow the SMILES beside them.

In series [1] the test system is patients with symptoms of OIC treated for non-malignant chronic pain with opioid therapy. As to the kind of experiment: randomized 4-week placebo-controlled dose-ranging study in OIC: efficacy. It counts as in vivo, human. The conditions noted are these: for Week 4 change from baseline in SBMs, LS Mean (SE) / Week 4 change from baseline in SBMs, Mean (SD): observed cases, mITT population. An excerpt:
A Randomized, 4-Week, Double-Blind, Placebo-Controlled, Dose-Ranging Study to Assess the Safety and Efficacy of Sp-333 for the Treatment of Opioid-Induced Constipation (OIC) in Patients with Non-Malignant Chronic Pain Receiving Opioid Therapy
To evaluate the clinical efficacy of SP-333 compared with placebo, in patients with symptoms of OIC who have been treated for non-malignant chronic pain with opioid therapy.
The primary efficacy endpoint was to determine the mean change from baseline in the number of […] (SBMs) during Week 4 of the Treatment Period. Safety was assessed by analysis of the frequency of treatment-emergent adverse events (TEAEs), adverse events leading to withdrawal, and serious adverse events (SAEs).

A short description of series [2]: randomized 4-week study in OIC: SP-333 plasma levels. The series is classed as in vivo, human. The conditions noted are these: for level at 0.5 h / level at 1 h: human, plasma, 6 mg, SP-333: 6 mg, read-out: SP-333 concentration; for level at 0.5 h: time 30; for level at 1 h: time 60. From the text:
To assess the safety and tolerability of SP-333. To evaluate the pharmacodynamic effects of SP-333. To evaluate the pharmacokinetic properties of SP-333.

For the next series, the system named is T84 cells. As to the kind of experiment: cyclic GMP and cyclic AMP production in T84 cells. The series is classed as cell-based, human. The note with it: 0.01, 0.1, 1, or 10 μM SP-333. On the procedure:
FIG. 3A-B is a series of graphs showing that SP-333 stimulates cyclic GMP, but not cyclic AMP production in T84 cells. Cells were treated with either control, IBMX, SP-333 ([…]), forskolin (FSK) or FSK+IBMX.
The results are depicted in FIG. 3A-B. T84 cells were treated with either control, IBMX, forskolin (FSK), or 0.01, 0.1, 1, or 10 μM SP-333, and the production of cGMP or cAMP measured (pmoles/well). CPT-cGMP and CPT-cAMP both stimulate Isc across T84 cell monolayers.

In series [3] the test system is female Sprague-Dawley rats. As to the kind of experiment: morphine-induced delay in rat GI transit (charcoal meal). The series is classed as in vivo. The conditions noted are these: 2.5 mg/kg morphine IP. On the procedure:
Animals: All study procedures were conducted under a study outline approved by the Institutional Animal Care and Use Committee of MB Research Labs (Spinnerstown, Pa.) or Lampire Biological Laboratories (Pipersville, Pa.). Seven to eight week old female Sprague-Dawley rats [Crl:CD(SD)], weighing between ˜180-210 grams, were obtained from Charles River Laboratories and allowed to acclimate for a week. Animals were maintained on a 12 hour light-dark cycle. For intestinal tissue collection and evaluation of GI transit, rats were fasted for at least 18 hours before the experiment, with free access to water.
The ability of opioids to delay GI transit in rats was tested by either administering 0 (vehicle) 0.25, 1 and 2.5 mg/kg of morphine or 0 (vehicle), 0.25, 2.5 and 5 mg/kg of methadone (1.5 ml/kg dose volume) by IP injection. Water served as vehicle control. Ten minutes later, a 2 mL charcoal meal consisting of 10% activated charcoal (Sigma-Aldrich, St. Louis, Mo.) and 10% gum Arabic (Sigma-Aldrich, St. Louis, Mo.) in water was administered via oral gavage. Rats were euthanized 10 min after the charcoal meal via IP injection of 150 mg/kg Beuthanasia-D solution (sodium pentobarbital, 390 mg/mL). The small intestine was removed and the total length from the pyloric sphincter to the ileocecal junction was recorded, as well as the distance traveled by the leading edge of the charcoal. Intestinal transit was determined by calculating the ratio (expressed as a percentage) of the distance between the pyloric sphincter and the leading edge of the charcoal to the distance between the pyloric sphincter and the ileocecal junction.
To evaluate the ability of SP-333 to reverse morphine induced delayed GI transit, animals were administered 2.5 mg/kg of morphine by IP injection followed immediately by oral gavage of 0 (vehicle), 0.5, 2.5, 5 and 50 mg/kg of SP-333 (1.5 ml/kg dose volume). Water served as vehicle control. Charcoal meal was administered ten minutes later and animals were euthanized ten minutes after the charcoal meal and intestinal transit was calculated as described above.

Where [4] appears, read: 30 and/or 60 minute time points.

In the case of `CC(C)C[C@@H]1NC(=O)[C@H](CCC(=O)O)NC(=O)[C@@H](NC(=O)[C@H](CCC(=O)O)NC(=O)[C@H](CC(=O)O)NC(=O)[C@H](N)CC(N)=O)CSSC[C@@H]2NC(=O)[C@H](C)NC(=O)[C@H](C(C)C)NC(=O)[C@H](CC(N)=O)NC(=O)[C@H](C(C)C)NC(=O)[C@H](CSSC[C@@H](C(=O)N[C@H](CC(C)C)C(=O)O)NC(=O)CNC(=O)[C@H]([C@@H](C)O)NC2=O)NC1=O` [SP-333, dAsn^1-Asp^2-Glu^3-Cys^4-Glu^5-Leu^6-Cys^7-Val^8-Asn^9-Val^10-Ala^11-Cys^12-Thr^13-Gly^14-Cys^15-dLeu^16] (H-[dN]DECELCVNVACTGC[dL]-OH; disulfide 4-12, 7-15), in series [1] (3 mg and 6 mg doses), the “primary endpoint (mean change from baseline in SBMs during Week 4)” value is given as “statistically significant improvement”. Moreover, the entries for the “Week 4 change from baseline in SBMs, Difference from Placebo” value in series [1] (SP-333 1 mg), in series [1] (SP-333 3 mg) and in series [1] (SP-333 6 mg) were 0.613 SBMs/week, 1.405 SBMs/week and 1.528 SBMs/week, respectively. Besides, the “Week 4 change from baseline in SBMs, LS Mean (SE)” value in series [1] (SP-333 1 mg) is 2.436 (0.3800) SBMs/week; in series [1] (SP-333 3 mg), 3.227 (0.3858) SBMs/week; in series [1] (SP-333 6 mg) it was 3.351 (0.3919) SBMs/week. Moreover, the “Week 4 change from baseline in SBMs, Mean (SD)” value in series [1] (SP-333 1 mg) was 2.429 (2.7363) SBMs/week; in series [1] (SP-333 3 mg), 3.210 (3.8524) SBMs/week; in series [1] (SP-333 6 mg) it was 3.379 (3.1424) SBMs/week. For the same compound, the “maximum plasma level value observed” value in series [2] (setting [4]) is given as 2.71 ng/mL. Moreover, the “number of patients in whom SP-333 plasma levels were observed” value in series [2] (setting [4]) is reported as 4 patients. Also, the level at 0.5 h in series [2] (subject 006-004, visit week 1) is 2.71 ng/mL; in series [2] (subject 007-013, visit week 1) it was 1.38 ng/mL; in series [2] (subject 026-016, visit week 4), 1.88 ng/mL; in series [2] (subject 047-002, visit week 4) it was 1.21 ng/mL. For the same compound, the level at 1 h was found to be 1.77 ng/mL in series [2] (subject 006-004, visit week 1) and 1.5 ng/mL in series [2] (subject 026-016, visit week 4). In the series with T84 cells, the cAMP production entry is given as “not cAMP synthesis; also recorded: does not result in an increase of cAMP production”. Moreover, the cGMP production entry in the series on T84 cells was “stimulates cGMP synthesis; also recorded: concentration dependent increase in cGMP levels”. Further, the “GI transit in morphine-treated rats” value was 27% in series [3] (then SP-333 0.5 mg/kg oral gavage), 37% in series [3] (then SP-333 2.5 mg/kg oral gavage), 46% in series [3] (then SP-333 5 mg/kg oral gavage) and 48% in series [3] (then SP-333 50 mg/kg oral gavage).
